# Laboratory results published in patent publication US12692233B2, “Anthelmintic compounds comprising a pyridine structure” (Intervet Inc., priority 2020, dated 2026).
# Assays:
# [1] = target: T1, human Maxi K channel (BK channel) (Homo sapiens, UniProt Q12791); test: Agonistic activity at the human Maxi K channel (BK channel), FLIPR membrane potential in CHO K1 cells; assay type: cell-based; conditions: CHO K1 cells stably transfected with KCNMA1 and beta1 (KCNMB1) subunits, membrane potential dye
# T1 construct: expressed in transfected cells; host or cells: CHO K1
# From the text: A CHO K1 cell line was stably transfected with the KCNMA1 (KCa1.1, U11058) and beta1 (KCNMB1) subunits of the human Maxi K channel (Ponte et al, Molecular Pharmacology 2012, 81(4), 567-577).
# The complete measurement takes 150 s.
# [2] = test system: Ascaridia galli; test: In vitro assay Ascaridia galli larval stage 3; assay type: cell-based; conditions: larval stage 3, 20 larvae per well, microscopic examination, read-out: MEC (minimum effective concentration) against Ascaridia galli L3
# From the text: (§1) […] galli (intestinal roundworm of chicken), larval stage 3 (“L3”); and Oesophagostumum dentatum (nodular worm of swine), larval stages 3 and 4 (respectively “L3” and “L4”) where suspended in a nutrient medium and distributed to 96 well plates with 20 larvae per well. The wells were spiked DMSO solutions of the compounds with declining concentration.
# [3] = target: C. elegans Slo-1a (Caenorhabditis elegans, UniProt Q95V25); test: Agonistic activity at C. elegans Slo-1a, FLIPR membrane potential in CHO K1 cells; conditions: EC50 agonistic activity at C. elegans Slo-1a, CHO K1 cells stably transfected with slo-1a, membrane potential dye
# Description: A CHO K1 cell line stably transfected with the Caenorhabditis elegans slo-1a (accession no Y51A2D.19a) was established. Cells were seeded in microtiter plates (black 384-well MTP, clear bottom) in a concentration of 10,000 cells/well in 25 μl medium and cultured for 20 to 24 hours at 37° C. and 5% CO2. After incubation, 25 μl of FMP-dye Blue-Tyrode's was added to each well and incubated at room temperature for 30 min. Ten minutes after addition of 12.5 μl compound solution, the plates are transferred to the FLIPR for measurement.
# For the membrane potential measurements, the plates were placed in the FLIPR Penta (Molecular Devices). The baseline measurement of the fluorescence was stared for 20 sec (Exc. 510-545 nm, Emm. 565-625 nm). Potential channel opening measurement was started by addition of 25 μl of KCl-Tyrode (final assay concentration of the KCl-Tyrode: 70 mM KCl, 2 mM CaCl2, 1 mM MgCl2, 0.8 mM NaH2PO4, 5 mM Glucose, 28 mM Hepes, pH 7.4, including the voltage sensitive dye). The complete measurement takes 150 s.
# EC50 values were determined in triplicate utilizing compound dilution series. The data were determined at least in two independent tests. The data were proceeded by using the ActivityBase XE Runner software (IDBS) for curve fitting and calculation of the half-maximal effective concentration.
# [4] = test system: Oesophagostumum dentatum; test: In vitro assay Oesophagostumum dentatum larval stage 3; assay type: cell-based; conditions: larval stage 3, 20 larvae per well, microscopic examination; read-out: MEC (minimum effective concentration) against Oesophagostumum dentatum L3
# From the text: as §1
# [5] = test system: Oesophagostumum dentatum; test: In vitro assay Oesophagostumum dentatum larval stage 4; assay type: cell-based; conditions: larval stage 4, 20 larvae per well, microscopic examination; read-out: MEC (minimum effective concentration) against Oesophagostumum dentatum L4
# From the text: as §1
# Chain of C. elegans Slo-1a (Q95V25 whole entry): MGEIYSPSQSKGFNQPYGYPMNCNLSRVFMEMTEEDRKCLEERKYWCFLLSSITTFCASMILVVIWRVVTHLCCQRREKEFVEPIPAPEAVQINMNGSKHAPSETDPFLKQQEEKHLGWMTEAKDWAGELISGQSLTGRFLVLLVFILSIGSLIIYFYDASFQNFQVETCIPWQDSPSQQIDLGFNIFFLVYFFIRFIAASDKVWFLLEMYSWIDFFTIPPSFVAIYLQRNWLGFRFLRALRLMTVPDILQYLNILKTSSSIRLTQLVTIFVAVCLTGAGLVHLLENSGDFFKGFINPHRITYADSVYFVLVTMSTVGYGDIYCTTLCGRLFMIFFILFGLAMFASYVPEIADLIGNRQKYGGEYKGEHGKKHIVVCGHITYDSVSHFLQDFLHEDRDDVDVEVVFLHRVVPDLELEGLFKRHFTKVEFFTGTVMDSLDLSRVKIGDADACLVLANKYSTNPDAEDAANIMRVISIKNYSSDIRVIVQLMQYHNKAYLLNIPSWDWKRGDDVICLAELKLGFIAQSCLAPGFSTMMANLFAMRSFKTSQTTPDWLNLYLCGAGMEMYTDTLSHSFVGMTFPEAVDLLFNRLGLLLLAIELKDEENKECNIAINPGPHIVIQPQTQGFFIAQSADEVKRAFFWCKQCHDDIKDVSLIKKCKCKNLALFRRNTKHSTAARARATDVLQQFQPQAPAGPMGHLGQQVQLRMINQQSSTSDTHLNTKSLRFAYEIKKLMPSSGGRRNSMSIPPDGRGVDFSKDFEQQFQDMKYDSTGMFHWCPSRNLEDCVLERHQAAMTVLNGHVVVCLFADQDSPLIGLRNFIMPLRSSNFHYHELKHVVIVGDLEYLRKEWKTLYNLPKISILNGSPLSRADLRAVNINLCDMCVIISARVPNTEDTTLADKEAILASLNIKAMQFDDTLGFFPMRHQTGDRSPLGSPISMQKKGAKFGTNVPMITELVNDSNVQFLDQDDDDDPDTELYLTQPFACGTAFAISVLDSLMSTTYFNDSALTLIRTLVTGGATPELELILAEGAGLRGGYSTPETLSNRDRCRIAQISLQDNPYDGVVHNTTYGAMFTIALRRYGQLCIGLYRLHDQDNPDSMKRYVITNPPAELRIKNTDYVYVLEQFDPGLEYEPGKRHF
# T1 sequence (Q12791 1-1178 isoform Q12791-5): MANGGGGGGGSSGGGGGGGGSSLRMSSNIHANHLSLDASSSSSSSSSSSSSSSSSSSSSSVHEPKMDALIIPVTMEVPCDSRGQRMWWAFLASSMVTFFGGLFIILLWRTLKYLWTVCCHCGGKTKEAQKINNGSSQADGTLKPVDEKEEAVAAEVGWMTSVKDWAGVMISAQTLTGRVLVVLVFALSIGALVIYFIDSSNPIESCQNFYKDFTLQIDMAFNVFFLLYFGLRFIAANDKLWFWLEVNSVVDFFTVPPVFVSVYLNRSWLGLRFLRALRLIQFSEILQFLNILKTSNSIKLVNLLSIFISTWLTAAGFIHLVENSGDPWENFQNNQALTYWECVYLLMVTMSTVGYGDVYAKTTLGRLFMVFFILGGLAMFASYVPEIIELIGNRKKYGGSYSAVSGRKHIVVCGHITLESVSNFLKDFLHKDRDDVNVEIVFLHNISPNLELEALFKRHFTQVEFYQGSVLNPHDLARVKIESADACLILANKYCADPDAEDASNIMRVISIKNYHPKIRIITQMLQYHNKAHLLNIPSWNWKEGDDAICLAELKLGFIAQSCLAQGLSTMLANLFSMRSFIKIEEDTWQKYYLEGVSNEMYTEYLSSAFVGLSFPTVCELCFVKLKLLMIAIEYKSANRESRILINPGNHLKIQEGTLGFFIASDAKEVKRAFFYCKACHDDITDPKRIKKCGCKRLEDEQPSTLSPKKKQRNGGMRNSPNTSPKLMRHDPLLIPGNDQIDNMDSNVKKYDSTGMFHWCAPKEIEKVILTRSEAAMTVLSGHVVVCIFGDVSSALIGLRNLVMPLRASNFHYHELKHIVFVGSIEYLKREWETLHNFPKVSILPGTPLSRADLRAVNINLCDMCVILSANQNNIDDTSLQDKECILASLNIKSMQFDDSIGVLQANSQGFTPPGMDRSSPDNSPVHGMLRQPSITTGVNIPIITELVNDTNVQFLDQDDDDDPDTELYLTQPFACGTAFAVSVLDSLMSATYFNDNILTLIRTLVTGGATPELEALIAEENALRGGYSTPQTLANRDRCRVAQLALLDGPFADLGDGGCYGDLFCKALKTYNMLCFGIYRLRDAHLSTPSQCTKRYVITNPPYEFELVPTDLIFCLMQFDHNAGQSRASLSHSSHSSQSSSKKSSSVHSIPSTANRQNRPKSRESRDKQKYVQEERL
# T1 sequence (Q16558 whole entry partner): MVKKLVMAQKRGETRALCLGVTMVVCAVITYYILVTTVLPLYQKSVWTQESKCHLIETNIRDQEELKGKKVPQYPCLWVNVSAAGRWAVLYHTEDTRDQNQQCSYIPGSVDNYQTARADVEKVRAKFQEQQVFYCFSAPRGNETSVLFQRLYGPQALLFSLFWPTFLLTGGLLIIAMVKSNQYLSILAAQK
SMILES,EC50 [1],minimal effective concentration [2],EC50 [3],minimal effective concentration [4],minimal effective concentration [5]
O=C(Nc1cccc2ccccc12)c1cnc(Sc2cc(Cl)cc(Cl)c2)cc1N1CCOCC1 [Compound 10],> 30 µM,≤ 50 µM,,,
O=C(N[C@H]1CCc2ccccc21)c1cnc(Sc2cc(Cl)cc(Cl)c2)cc1N1CCOCC1 [Compound 11],> 30 µM,,< 1 µM,,
O=C(N[C@H]1CCOc2ccccc21)c1cnc(Oc2cccc(Cl)c2Cl)cc1N1CCOCC1 [Compound 12],> 30 µM,,< 1 µM,,
CN(C)c1cc(Sc2cc(Cl)cc(Cl)c2)ncc1C(=O)N[C@H]1CCCc2ccccc21 [Compound 14],> 30 µM,≤ 50 µM,< 10 µM,,
CN(C)c1cc(Sc2cc(Cl)cc(Cl)c2)ncc1C(=O)N[C@H]1CCc2ccccc21 [Compound 15],> 30 µM,,< 1 µM,,
CN(C)c1cc(Sc2cc(Cl)cc(Cl)c2)ncc1C(=O)Nc1cccc2ccccc12 [Compound 16],> 30 µM,≤ 50 µM,,≤ 50 µM,
CN(C)c1cc(Sc2cccc(Cl)c2Cl)ncc1C(=O)N[C@H]1CCCc2ccccc21 [Compound 19],> 30 µM,≤ 50 µM,< 1 µM,,
CN(C)c1cc(Sc2cccc(Cl)c2Cl)ncc1C(=O)N[C@H]1CCOc2ccccc21 [Compound 20],> 30 µM,,< 1 µM,,
O=C(N[C@H]1CCOc2ccccc21)c1cnc(Sc2cccc(Cl)c2Cl)cc1N1CCOCC1 [Compound 22],> 30 µM,,< 1 µM,,
O=C(Nc1cccc2ccccc12)c1cnc(Oc2cc(Cl)cc(Cl)c2)cc1N1CCOCC1 [Compound 26],> 30 µM,≤ 50 µM,,,
O=C(Nc1csc2ccccc12)c1cnc(Sc2cc(Cl)cc(Cl)c2)cc1N1CCOCC1 [Compound 27],> 30 µM,≤ 50 µM,,,
CN(C)c1cc(Oc2cc(Cl)cc(Cl)c2)ncc1C(=O)N[C@H]1CCCc2ccccc21 [Compound 28],> 30 µM,≤ 50 µM,< 1 µM,,
CN(C)c1cc(Oc2cc(Cl)cc(Cl)c2)ncc1C(=O)N[C@H]1CCOc2ccccc21 [Compound 30],> 30 µM,,< 1 µM,,
CN(C)c1cc(Oc2cc(Cl)cc(Cl)c2)ncc1C(=O)N[C@H]1CCc2ccccc21 [Compound 31],> 30 µM,,< 1 µM,,
CN(C)c1cc(Sc2cc(Cl)cc(Cl)c2)ncc1C(=O)Nc1csc2ccccc12 [Compound 33],> 30 µM,≤ 50 µM,,,
CN(C)c1cc(Sc2cccc(Cl)c2Cl)ncc1C(=O)N[C@H]1CCc2ccccc21 [Compound 42],> 30 µM,,< 1 µM,,
O=C(Nc1csc2ccccc12)c1cnc(Oc2cc(Cl)cc(Cl)c2)cc1N1CCOCC1 [Compound 47],> 30 µM,≤ 50 µM,,,
O=C(Nc1csc2ccccc12)c1cnc(Sc2cccc(Cl)c2Cl)cc1N1CCOCC1 [Compound 48],> 30 µM,≤ 50 µM,,,≤ 50 µM
O=C(Nc1cccc2ccccc12)c1cnc(Sc2cccc(Cl)c2Cl)cc1N1CCOCC1 [Compound 49],> 30 µM,≤ 50 µM,,,
CSc1cc(Sc2cccc(Cl)c2Cl)ncc1C(=O)N[C@H]1CCc2ccccc21 [Compound 53],> 30 µM,,< 10 µM,,≤ 50 µM
CSc1cc(Sc2cccc(Cl)c2Cl)ncc1C(=O)N[C@H]1CCCc2ccccc21 [Compound 54],> 30 µM,≤ 50 µM,< 10 µM,,
CSc1cc(Oc2cccc(Cl)c2Cl)ncc1C(=O)N[C@H]1CCCc2ccccc21 [Compound 56],> 30 µM,≤ 50 µM,< 10 µM,,
CSc1cc(Oc2cccc(Cl)c2Cl)ncc1C(=O)N[C@H]1CCc2ccccc21 [Compound 58],> 30 µM,≤ 50 µM,< 10 µM,,
CSc1cc(Oc2cc(Cl)cc(Cl)c2)ncc1C(=O)N[C@H]1CCCc2ccccc21 [Compound 59],> 30 µM,,< 10 µM,,
CSc1cc(Oc2cc(Cl)cc(Cl)c2)ncc1C(=O)N[C@@H]1CCOc2ccccc21 [Compound 60],> 30 µM,,,≤ 50 µM,

SMILES,EC50 [1],minimal effective concentration [2],EC50 [3],minimal effective concentration [4],minimal effective concentration [5]
CSc1cc(Oc2cc(Cl)cc(Cl)c2)ncc1C(=O)N[C@H]1CCc2ccccc21 [Compound 61],> 30 µM,≤ 50 µM,,,
CCSc1cc(Sc2cccc(Cl)c2Cl)ncc1C(=O)N[C@H]1CCCc2ccccc21 [Compound 62],> 30 µM,≤ 50 µM,,≤ 50 µM,
CSc1cc(Sc2cc(Cl)cc(Cl)c2)ncc1C(=O)N[C@H]1CCc2ccccc21 [Compound 65],> 30 µM,,< 10 µM,,
COc1cc(Sc2cccc(Cl)c2Cl)ncc1C(=O)N[C@H]1CCCc2ccccc21 [Compound 66],> 30 µM,,< 10 µM,≤ 50 µM,≤ 50 µM
COc1cc(Sc2cccc(Cl)c2Cl)ncc1C(=O)N[C@H]1CCOc2ccccc21 [Compound 68],> 30 µM,,< 10 µM,,≤ 50 µM
CSc1cc(Sc2cc(Cl)cc(Cl)c2)ncc1C(=O)N[C@H]1CCCc2ccccc21 [Compound 69],> 30 µM,,< 10 µM,,
CCOc1cc(Sc2cccc(Cl)c2Cl)ncc1C(=O)N[C@H]1CCOc2ccccc21 [Compound 71],> 30 µM,,< 10 µM,,
CCSc1cc(Sc2cc(Cl)cc(Cl)c2)ncc1C(=O)N[C@H]1CCOc2ccccc21 [Compound 74],> 30 µM,,,≤ 50 µM,≤ 50 µM
CCSc1cc(Oc2cc(Cl)cc(Cl)c2)ncc1C(=O)N[C@H]1CCOc2ccccc21 [Compound 80],> 30 µM,≤ 50 µM,,,
COc1cc(Sc2cc(Cl)cc(Cl)c2)ncc1C(=O)N[C@H]1CCOc2ccccc21 [Compound 83],> 30 µM,≤ 50 µM,< 10 µM,≤ 50 µM,
COc1cc(Oc2cc(Cl)cc(Cl)c2)ncc1C(=O)N[C@H]1CCOc2ccccc21 [Compound 86],> 30 µM,,,≤ 50 µM,
CCOc1cc(Sc2cc(Cl)cc(Cl)c2)ncc1C(=O)N[C@H]1CCOc2ccccc21 [Compound 88],> 30 µM,,< 10 µM,,
CCOc1cc(Oc2cccc(Cl)c2Cl)ncc1C(=O)N[C@H]1CCOc2ccccc21 [Compound 92],> 30 µM,,,,≤ 50 µM
CCOc1cc(Sc2cc(Cl)cc(Cl)c2)ncc1C(=O)N[C@H]1CCCc2ccccc21 [Compound 99],> 30 µM,,,≤ 50 µM,
CN(C)c1cc(S(=O)(=O)c2cc(Cl)cc(Cl)c2)ncc1C(=O)N[C@H]1CCOc2ccccc21 [Compound 100],> 30 µM,≤ 50 µM,< 10 µM,≤ 50 µM,
O=C(N[C@H]1CCCc2ccccc21)c1cnc(Nc2cc(Cl)cc(Cl)c2)cc1N1CCOCC1 [Compound 106],> 30 µM,≤ 50 µM,< 10 µM,,
O=C(N[C@H]1CCOc2ccccc21)c1cnc(Nc2cc(Cl)cc(Cl)c2)cc1N1CCOCC1 [Compound 107],10 to 30 µM,≤ 50 µM,< 10 µM,,
CN(C)c1cc(Nc2cc(Cl)cc(Cl)c2)ncc1C(=O)N[C@H]1CCCc2ccccc21 [Compound 108],> 30 µM,≤ 50 µM,< 10 µM,,
O=C(N[C@H]1CCc2ccccc21)c1cnc(Nc2cc(Cl)cc(Cl)c2)cc1N1CCOCC1 [Compound 109],10 to 30 µM,≤ 50 µM,< 10 µM,≤ 50 µM,
CN(C)c1cc(Cc2cc(Cl)cc(Cl)c2)ncc1C(=O)N[C@H]1CCc2ccccc21 [Compound 110],> 30 µM,,,≤ 50 µM,≤ 50 µM
CN(C)c1cc(Cc2cc(Cl)cc(Cl)c2)ncc1C(=O)N[C@H]1CCCc2ccccc21 [Compound 111],> 30 µM,,,≤ 50 µM,≤ 50 µM
O=C(N[C@H]1CCOc2ccccc21)c1cnc(Cc2cc(Cl)cc(Cl)c2)cc1N1CCOCC1 [Compound 112],> 30 µM,≤ 50 µM,< 10 µM,≤ 50 µM,
O=C(N[C@H]1CCCc2ccccc21)c1cnc(Cc2cc(Cl)cc(Cl)c2)cc1N1CCOCC1 [Compound 113],> 30 µM,,< 10 µM,≤ 50 µM,
CN(C)c1cc(Nc2cc(Cl)cc(Cl)c2)ncc1C(=O)N[C@H]1CCOc2ccccc21 [Compound 115],> 30 µM,≤ 50 µM,< 10 µM,≤ 50 µM,
O=C(N[C@H]1CCc2ccccc21)c1cnc(Cc2cc(Cl)cc(Cl)c2)cc1N1CCOCC1 [Compound 117],,≤ 50 µM,< 10 µM,≤ 50 µM,≤ 50 µM
